Test results from the supplement of paper PMC11208160.

assay: recombinant barcode read abundance after kanamycin selection (control-corrected) (log10(CPM+1)); higher = more efficient recombination; sequences stand for … in AGTGCAGAGAAAATCGGCCAGTTTTCTCTGCCTGCAGTCCGCATGCCGT…AGATTTATGCAGCGGACTGCCTTTCTCCCAAAGTGATAAACCGGACAGTATCATGGACCGGTTTTCCCGGTAATCCGTATTTGCAAGGTTGGTTTCACT; site = the 11-nt target
Summary of the method: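 Pooled E. coli screen pairing targets with IS621 bridge RNA target-binding loops. Each oligo (promoter, target, barcode, J23119-driven first 104 bridge RNA bases) was Gibson-cloned into a vector with the remaining 73 bp and T7-inducible recombinase, then co-electroporated with a donor plasmid. Two replicates each were plated on chloramphenicol/ampicillin LB agar (control) or chloramphenicol/ampicillin/kanamycin with 0.1 mM IPTG. Recombination efficiency is recombinant-junction barcode counts as CPM, averaged, control-corrected, reported as log10(CPM+1).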
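Further: IS621 recombinase and bridge RNA in Escherichia coli cells.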

Compared with “GACTGCCCTTGGGTTCTAACCTGTTGCGG (site GGCGGCCCTCC)”, “GACTTACCTTGGGTTCTAACCTGTTGCAT (site GACTTACCTAT)” is higher in “recombinant barcode read abundance (log10)” value: 0.137 for the first, 1.18 for the second.

“GACTTACCTTGGGTTCTAACCTGTTGCAT (site GACTTCCCTAT)” and “GACTTACCTTGGGTTCTAACCTGTTGCAT (site GACTTGCCTAT)” are within 0.2 log units of each other in “recombinant barcode read abundance (log10)” value: 0.216 for the first, 0.135 for the second.

First: GACTTACCTTGGGTTCTAACCTGTTGCAT (site GACTTTCCTAT)
Second: GACTTCCCTTGGGTTCTAACCTGTTGCAT (site GACTTACCTAT)
The “recombinant barcode read abundance (log10)” value of the first is lower: 0.124 for the first, 0.352 for the second.

First: GACTTCCCTTGGGTTCTAACCTGTTGCAT (site GACTTCCCTAT)
Second: GACTTCCCTTGGGTTCTAACCTGTTGCAT (site GACTTGCCTAT)
The “recombinant barcode read abundance (log10)” value of the first is higher: 1.45 for the first, 0.0893 for the second.

“GACTTCCCTTGGGTTCTAACCTGTTGCAT (site GACTTTCCTAT)” and “GACTTGCCTTGGGTTCTAACCTGTTGCCT (site GACTTGACTAG)” are within 0.2 log units of each other in “recombinant barcode read abundance (log10)” value: 0.0857 for the first, 0.023 for the second.

First: GACTTGCCTTGGGTTCTAACCTGTTGCCT (site GACTTGCCTAG)
Second: GACTTGCCTTGGGTTCTAACCTGTTGCCT (site GACTTGGCTAG)
The “recombinant barcode read abundance (log10)” value of the first is higher: 0.816 for the first, 0.394 for the second.

First: GACTTGCCTTGGGTTCTAACCTGTTGCCT (site GACTTGTCTAG)
Second: GACTTGTCTTGGGTTCTAACCTGTTGCGG (site GACTCATCTCC)
The “recombinant barcode read abundance (log10)” value of the first is higher: 0.217 for the first, 0 for the second.

Going from “GACTTGTCTTGGGTTCTAACCTGTTGCGG (site GACTTGTCTCC)” to “GACTTTACTTGGGTTCTAACCTGTTGCCT (site GACGTTGCTAG)”, the “recombinant barcode read abundance (log10)” value falls from 1.59 to 0.00775.

Compared with “GACTTTACTTGGGTTCTAACCTGTTGCCT (site GACTTTACTAG)”, “GAGAGTACTTGGGTTCTAACCTGTTGCAT (site GAGAGTACTAT)” is higher in “recombinant barcode read abundance (log10)” value: 0.0133 for the first, 0.982 for the second.

Compared with “GAGAGTACTTGGGTTCTAACCTGTTGCAT (site GAGCGTACTAT)”, “GAGAGTACTTGGGTTCTAACCTGTTGCAT (site GAGGGTACTAT)” is higher in “recombinant barcode read abundance (log10)” value: 0.16 for the first, 0.654 for the second.

First: GAGAGTACTTGGGTTCTAACCTGTTGCAT (site GAGTGTACTAT)
Second: GAGATCCCTTGGGTTCTAACCTGTTGCCT (site GAGATCCCTAG)
The “recombinant barcode read abundance (log10)” value of the first is lower: 0.0293 for the first, 2.03 for the second.

Going from “GAGATCCCTTGGGTTCTAACCTGTTGCCT (site GTGATCCCTAG)” to “GAGCCTCCTTGGGTTCTAACCTGTTGCAT (site ACCAGGACTCG)”, the “recombinant barcode read abundance (log10)” value falls from 0.422 to 0.136.

Compared with “GAGCCTCCTTGGGTTCTAACCTGTTGCAT (site GAGCCTCCTAT)”, “GAGCCTTCTTGGGTTCTAACCTGTTGCAG (site AAGCCTTCTCA)” is lower in “recombinant barcode read abundance (log10)” value: 1.81 for the first, 0.0383 for the second.

First: GAGCCTTCTTGGGTTCTAACCTGTTGCAG (site GAGCCTTCTCT)
Second: GAGCGAGCTTGGGTTCTAACCTGTTGCAG (site GAGCGAGCTCA)
The “recombinant barcode read abundance (log10)” value of the first is higher: 1.46 for the first, 0.578 for the second.

“GAGCGAGCTTGGGTTCTAACCTGTTGCAG (site GAGCGAGCTCC)” and “GAGCGAGCTTGGGTTCTAACCTGTTGCAG (site GAGCGAGCTCG)” are within 0.2 log units of each other in “recombinant barcode read abundance (log10)” value: 0.322 for the first, 0.175 for the second.

Compared with “GAGCGAGCTTGGGTTCTAACCTGTTGCAG (site GAGCGAGCTCT)”, “GAGCGAGCTTGGGTTCTAACCTGTTGCAT (site GAGAGAGCTAT)” is lower in “recombinant barcode read abundance (log10)” value: 1.46 for the first, 0.0856 for the second.

First: GAGCGAGCTTGGGTTCTAACCTGTTGCAT (site GAGCGAGCTAT)
Second: GAGCGAGCTTGGGTTCTAACCTGTTGCAT (site GAGGGAGCTAT)
The “recombinant barcode read abundance (log10)” value of the first is higher: 1.94 for the first, 0.0637 for the second.

Compared with “GAGCGAGCTTGGGTTCTAACCTGTTGCAT (site GAGTGAGCTAT)”, “GAGCGCACTTGGGTTCTAACCTGTTGCAG (site GAGCGCACTCC)” is lower in “recombinant barcode read abundance (log10)” value: 0.735 for the first, 0.27 for the second.

Compared with “GAGCGCACTTGGGTTCTAACCTGTTGCAG (site GAGCGCACTCT)”, “GAGCGCTCTTGGGTTCTAACCTGTTGCTT (site GAGCGCTCTAA)” is lower in “recombinant barcode read abundance (log10)” value: 1.7 for the first, 1.22 for the second.

“GAGCGCTCTTGGGTTCTAACCTGTTGCTT (site GAGCGCTCTCA)” and “GAGCGCTCTTGGGTTCTAACCTGTTGCTT (site GAGCGCTCTGA)” are within 0.2 log units of each other in “recombinant barcode read abundance (log10)” value: 0.0723 for the first, 0.088 for the second.

First: GAGCGCTCTTGGGTTCTAACCTGTTGCTT (site GAGCGCTCTTA)
Second: GAGCGGACTTGGGTTCTAACCTGTTGCCT (site GAGCAGACTAG)
The “recombinant barcode read abundance (log10)” value of the first is lower: 0.269 for the first, 0.698 for the second.

Compared with “GAGCGGACTTGGGTTCTAACCTGTTGCCT (site GAGCCGACTAG)”, “GAGCGGACTTGGGTTCTAACCTGTTGCCT (site GAGCGGACTAG)” is higher in “recombinant barcode read abundance (log10)” value: 0.388 for the first, 1.68 for the second.

Going from “GAGCGGACTTGGGTTCTAACCTGTTGCCT (site GAGCTGACTAG)” to “GAGCTACCTTGGGTTCTAACCTGTTGCCA (site GAGCTACCTAG)”, the “recombinant barcode read abundance (log10)” value rises from 0.129 to 0.796.

“GAGCTACCTTGGGTTCTAACCTGTTGCCA (site GAGCTACCTCG)” and “GAGCTACCTTGGGTTCTAACCTGTTGCCA (site GAGCTACCTGG)” are within 0.2 log units of each other in “recombinant barcode read abundance (log10)” value: 0.213 for the first, 0.13 for the second.

Going from “GAGCTACCTTGGGTTCTAACCTGTTGCCA (site GAGCTACCTTG)” to “GAGCTACCTTGGGTTCTAACCTGTTGCCG (site GAGCTACCTAG)”, the “recombinant barcode read abundance (log10)” value falls from 1.11 to 0.837.

First: GAGCTACCTTGGGTTCTAACCTGTTGCCG (site GAGCTACCTCG)
Second: GAGCTACCTTGGGTTCTAACCTGTTGCCG (site GAGCTACCTGG)
The “recombinant barcode read abundance (log10)” value of the first is higher: 1.11 for the first, 0.0124 for the second.

“GAGCTACCTTGGGTTCTAACCTGTTGCCG (site GAGCTACCTTG)” and “GAGCTCACTTGGGTTCTAACCTGTTGCCA (site GAGCACCCTTG)” are within 0.2 log units of each other in “recombinant barcode read abundance (log10)” value: 0.214 for the first, 0.0579 for the second.

First: GAGCTCACTTGGGTTCTAACCTGTTGCCA (site GAGCTCACTTG)
Second: GAGCTGACTTGGGTTCTAACCTGTTGCCT (site GAGCAGACTAG)
The “recombinant barcode read abundance (log10)” value of the first is higher: 0.514 for the first, 0.182 for the second.

Going from “GAGCTGACTTGGGTTCTAACCTGTTGCCT (site GAGCCGACTAG)” to “GAGCTGACTTGGGTTCTAACCTGTTGCCT (site GAGCGGACTAG)”, the “recombinant barcode read abundance (log10)” value falls from 0.488 to 0.0812.

First: GAGCTGACTTGGGTTCTAACCTGTTGCCT (site GAGCTGACTAG)
Second: GAGCTTGCTTGGGTTCTAACCTGTTGCGA (site GAGCTTGCTTC)
The “recombinant barcode read abundance (log10)” value of the first is higher: 1.49 for the first, 0.949 for the second.

Going from “GAGCTTGCTTGGGTTCTAACCTGTTGCGA (site TGCGGGTCTAG)” to “GAGGACTCTTGGGTTCTAACCTGTTGCCT (site GAGGACTCTAG)”, the “recombinant barcode read abundance (log10)” value rises from 0.122 to 3.

Going from “GAGGACTCTTGGGTTCTAACCTGTTGCCT (site GAGGACTCTCG)” to “GAGGACTCTTGGGTTCTAACCTGTTGCCT (site GAGGACTCTGG)”, the “recombinant barcode read abundance (log10)” value rises from 0.0247 to 1.29.

Compared with “GAGGACTCTTGGGTTCTAACCTGTTGCCT (site GAGGACTCTTG)”, “GAGGCTCCTTGGGTTCTAACCTGTTGCGT (site GAAGCTCCTAC)” is higher in “recombinant barcode read abundance (log10)” value: 0.0974 for the first, 1.54 for the second.

Compared with “GAGGCTCCTTGGGTTCTAACCTGTTGCGT (site GAGGCTCCTAC)”, “GAGGGCCCTTGGGTTCTAACCTGTTGCAG (site GAGGGCCCTCA)” is lower in “recombinant barcode read abundance (log10)” value: 2.97 for the first, 2.07 for the second.

Compared with “GAGGGCCCTTGGGTTCTAACCTGTTGCAG (site GAGGGCCCTCC)”, “GAGGGCCCTTGGGTTCTAACCTGTTGCAG (site GAGGGCCCTCG)” is higher in “recombinant barcode read abundance (log10)” value: 0.926 for the first, 1.4 for the second.

First: GAGGGCCCTTGGGTTCTAACCTGTTGCAG (site GAGGGCCCTCT)
Second: GAGGGCCCTTGGGTTCTAACCTGTTGCCT (site AAGGGCCCTAG)
The “recombinant barcode read abundance (log10)” value of the first is higher: 2.88 for the first, 1.38 for the second.

Going from “GAGGGCCCTTGGGTTCTAACCTGTTGCCT (site CAGGGCCCTAG)” to “GAGGGCCCTTGGGTTCTAACCTGTTGCCT (site GAGGGCCCTAG)”, the “recombinant barcode read abundance (log10)” value rises from 1.04 to 2.41.

Going from “GAGGGCCCTTGGGTTCTAACCTGTTGCCT (site TAGGGCCCTAG)” to “GAGGGTCCTTGGGTTCTAACCTGTTGCCT (site GAGGGTCCTAA)”, the “recombinant barcode read abundance (log10)” value falls from 1.04 to 0.451.

Compared with “GAGGGTCCTTGGGTTCTAACCTGTTGCCT (site GAGGGTCCTAC)”, “GAGGGTCCTTGGGTTCTAACCTGTTGCCT (site GAGGGTCCTAG)” is higher in “recombinant barcode read abundance (log10)” value: 0.133 for the first, 2.56 for the second.

Compared with “GAGGGTCCTTGGGTTCTAACCTGTTGCCT (site GAGGGTCCTAT)”, “GAGGGTCCTTGGGTTCTAACCTGTTGCTT (site GAGGGTCCTAA)” is higher in “recombinant barcode read abundance (log10)” value: 0.457 for the first, 2 for the second.

Compared with “GAGGGTCCTTGGGTTCTAACCTGTTGCTT (site GAGGGTCCTAC)”, “GAGGGTCCTTGGGTTCTAACCTGTTGCTT (site GAGGGTCCTAG)” is higher in “recombinant barcode read abundance (log10)” value: 0.598 for the first, 1.72 for the second.

“GAGGGTCCTTGGGTTCTAACCTGTTGCTT (site GAGGGTCCTAT)” and “GAGGGTGCTTGGGTTCTAACCTGTTGCCT (site GAGGGTGCTAG)” are within 0.2 log units of each other in “recombinant barcode read abundance (log10)” value: 1.83 for the first, 1.89 for the second.

“GAGGGTGCTTGGGTTCTAACCTGTTGCCT (site GAGGGTTCTAT)” and “GAGGTATCTTGGGTTCTAACCTGTTGCCA (site GAGGTATCTAC)” are within 0.2 log units of each other in “recombinant barcode read abundance (log10)” value: 0.121 for the first, 0.038 for the second.
